Tests used:
Format in all cases: functional, cell-based
MCF7 = assay: Cytotoxicity against human MCF7 cells assessed as inhibition of cell growth after 3 days by MTT assay; settings: MCF7, 72 h
[1] = Cytotoxicity against human Lu cells assessed as inhibition of cell growth after 3 days by MTT assay; settings: 72 h
KB = assay: Cytotoxicity against human KB cells assessed as inhibition of cell growth after 3 days by MTT assay; settings: 72 h
HepG2 = assay: Cytotoxicity against human HepG2 cells assessed as inhibition of cell growth after 3 days by MTT assay; settings: HepG2, 72 h

Compound | IC50 (MCF7) [nM] | IC50 [1] [nM] | IC50 (KB) [nM] | IC50 (HepG2) [nM]
CCOC(=O)/C(C)=C/[C@@H](NC(=O)[C@@H](NC(=O)/C(=C/c1ccc2ccccc2c1)NC(C)=O)C(C)(C)C)C(C)C | 42.3 | > 269 | 30.8 | 39.7
CCOC(=O)/C(C)=C/[C@@H](NC(=O)[C@@H](NC(=O)/C(=C/c1ccco1)NC(C)=O)C(C)(C)C)C(C)C | > 269 | > 269 | 160 | 214
CCOC(=O)/C(C)=C/[C@@H](NC(=O)[C@@H](NC(=O)/C(=C/c1ccoc1)NC(C)=O)C(C)(C)C)C(C)C | > 269 | > 269 | 86.2 | 67.3
CCOC(=O)/C(C)=C/[C@@H](NC(=O)[C@@H](NC(=O)/C(=C/c1ccsc1)NC(C)=O)C(C)(C)C)C(C)C | 203 | > 269 | 107 | 57.6
CCOC(=O)/C(C)=C/[C@@H](NC(=O)[C@@H](NC(=O)/C(=C/c1cccc(OC)c1)NC(C)=O)C(C)(C)C)C(C)C | 62 | 228 | 77.4 | 47.7
CCOC(=O)/C(C)=C/[C@@H](NC(=O)[C@@H](NC(=O)/C(=C/c1ccc(OC)cc1)NC(C)=O)C(C)(C)C)C(C)C | > 269 | > 269 | > 269 | > 269
CCOC(=O)/C(C)=C/[C@@H](NC(=O)[C@@H](NC(=O)/C(=C/c1ccc(Br)cc1)NC(C)=O)C(C)(C)C)C(C)C | > 269 | > 269 | > 269 | > 269
CCOC(=O)/C(C)=C/[C@@H](NC(=O)[C@@H](NC(=O)/C(=C/c1cccc(Br)c1)NC(C)=O)C(C)(C)C)C(C)C | > 269 | > 269 | > 269 | > 269
CC(=O)N/C(=C\c1ccc2ccccc2c1)C(=O)N[C@H](C(=O)N[C@H](/C=C(\C)C(=O)O)C(C)C)C(C)(C)C | > 269 | > 269 | 63 | 33.4
CC(=O)N/C(=C\c1ccco1)C(=O)N[C@H](C(=O)N[C@H](/C=C(\C)C(=O)O)C(C)C)C(C)(C)C | > 269 | > 269 | 8.2 | 17.8
CC(=O)N/C(=C\c1ccoc1)C(=O)N[C@H](C(=O)N[C@H](/C=C(\C)C(=O)O)C(C)C)C(C)(C)C | > 269 | > 269 | 155 | > 269
CC(=O)N/C(=C\c1ccsc1)C(=O)N[C@H](C(=O)N[C@H](/C=C(\C)C(=O)O)C(C)C)C(C)(C)C | > 269 | > 269 | > 269 | > 269
COc1cccc(/C=C(\NC(C)=O)C(=O)N[C@H](C(=O)N[C@H](/C=C(\C)C(=O)O)C(C)C)C(C)(C)C)c1 | > 269 | > 269 | > 269 | > 269
COc1ccc(/C=C(\NC(C)=O)C(=O)N[C@H](C(=O)N[C@H](/C=C(\C)C(=O)O)C(C)C)C(C)(C)C)cc1 | > 269 | > 269 | > 269 | > 269
CC(=O)N/C(=C\c1ccc(Br)cc1)C(=O)N[C@H](C(=O)N[C@H](/C=C(\C)C(=O)O)C(C)C)C(C)(C)C | > 269 | > 269 | > 269 | > 269
CC(=O)N/C(=C\c1cccc(Br)c1)C(=O)N[C@H](C(=O)N[C@H](/C=C(\C)C(=O)O)C(C)C)C(C)(C)C | > 269 | > 269 | > 269 | > 269

Compound | IC50 (MCF7) [nM] | IC50 [1] [nM] | IC50 (KB) [nM] | IC50 (HepG2) [nM]
CCOC(=O)/C(C)=C/[C@H](C(C)C)N(C)C(=O)[C@@H](NC(=O)/C(=C/c1ccc2ccccc2c1)NC(C)=O)C(C)(C)C | 67.9 | > 269 | 23 | 23.1
CCOC(=O)/C(C)=C/[C@H](C(C)C)N(C)C(=O)[C@@H](NC(=O)/C(=C/c1ccco1)NC(C)=O)C(C)(C)C | 178 | 231 | 3.5 | 31.4
CCOC(=O)/C(C)=C/[C@H](C(C)C)N(C)C(=O)[C@@H](NC(=O)/C(=C/c1ccoc1)NC(C)=O)C(C)(C)C | 113 | 158 | 24.1 | 16.3
CCOC(=O)/C(C)=C/[C@H](C(C)C)N(C)C(=O)[C@@H](NC(=O)/C(=C/c1ccsc1)NC(C)=O)C(C)(C)C | > 269 | > 269 | 202 | 15
CCOC(=O)/C(C)=C/[C@H](C(C)C)N(C)C(=O)[C@@H](NC(=O)/C(=C/c1cccc(OC)c1)NC(C)=O)C(C)(C)C | > 269 | > 269 | > 269 | > 269
CCOC(=O)/C(C)=C/[C@H](C(C)C)N(C)C(=O)[C@@H](NC(=O)/C(=C/c1ccc(OC)cc1)NC(C)=O)C(C)(C)C | 215 | > 269 | 3.7 | 3.7
CCOC(=O)/C(C)=C/[C@H](C(C)C)N(C)C(=O)[C@@H](NC(=O)/C(=C/c1ccc(Br)cc1)NC(C)=O)C(C)(C)C | > 269 | > 269 | 49 | > 269
CC(=O)N/C(=C\c1ccc2ccccc2c1)C(=O)N[C@H](C(=O)N(C)[C@H](/C=C(\C)C(=O)O)C(C)C)C(C)(C)C | > 269 | > 269 | 69.7 | 13
CC(=O)N/C(=C\c1ccco1)C(=O)N[C@H](C(=O)N(C)[C@H](/C=C(\C)C(=O)O)C(C)C)C(C)(C)C | > 269 | > 269 | 188 | > 269
CC(=O)N/C(=C\c1ccoc1)C(=O)N[C@H](C(=O)N(C)[C@H](/C=C(\C)C(=O)O)C(C)C)C(C)(C)C | > 269 | > 269 | > 269 | 149
CC(=O)N/C(=C\c1ccsc1)C(=O)N[C@H](C(=O)N(C)[C@H](/C=C(\C)C(=O)O)C(C)C)C(C)(C)C | > 269 | > 269 | 234 | 63.2
COc1cccc(/C=C(\NC(C)=O)C(=O)N[C@H](C(=O)N(C)[C@H](/C=C(\C)C(=O)O)C(C)C)C(C)(C)C)c1 | > 269 | > 269 | > 269 | > 269
COc1ccc(/C=C(\NC(C)=O)C(=O)N[C@H](C(=O)N(C)[C@H](/C=C(\C)C(=O)O)C(C)C)C(C)(C)C)cc1 | > 269 | > 269 | 15.8 | 63.8
CC(=O)N/C(=C\c1ccc(Br)cc1)C(=O)N[C@H](C(=O)N(C)[C@H](/C=C(\C)C(=O)O)C(C)C)C(C)(C)C | > 269 | > 269 | > 269 | > 269
Cc1c2ccncc2c(C)c2c1[nH]c1ccccc12 [ELLIPTECINE] | 2.15 | 1.82 | 1.26 | 1.26
CC(=O)O[C@H]1C(=O)[C@@]2(C)[C@H]([C@H](OC(=O)c3ccccc3)[C@]3(O)C[C@H](OC(=O)[C@H](O)[C@@H](NC(=O)c4ccccc4)c4ccccc4)C(C)=C1C3(C)C)[C@]1(OC(C)=O)CO[C@@H]1C[C@@H]2O [PACLITAXEL] |  |  | 3.9 | 0.19
